Where a name gives a salt, the structure may show the parent alone. Read-outs that look alike come from different tables or passages of the source.

Data set [1] is described as follows: Solubility / saturation concentration of TMT-Na salts and salt mixtures in water. It counts as physicochemical. The note with it: for Solubility of the TMT-Na salt/-salt mixture / solubility: water; for solubility: read-out: saturation concentration of TMT-Na3 in water; for solubility in water: temperature not given. The source says:
That is, in each case, more than 2 hydrogen atoms of the TMT-H3 are replaced.

Data set [2] can be described thus: Stability in storage of aqueous solutions (crystallization). As to conditions: in words. The class given is physicochemical. As to the method: Aqueous solutions of TMT-Na3 are commercially available and are used for separating heavy metal from the flue gas wash water of garbage incinerators, waste water in the mining industry and in galvanotechnical and chemical plants. The commercially available, aqueous TMT-NA3 solution has a concentration of 15% by weight (Publication TMT 15 of the Degussa company, 3/1986). The saturation concentration of TMT-Na3 in water is approximately 16% by weight at 0° C. and approximately 25% by weight at 20° C. […] Such a crystallization makes it considerably more difficult to handle the product. If heat-insulated or heated transport and storage containers were used, TMT-Na3 solutions with a higher concentration could be considered as a commercially supplied form of this product; however, this would make the product and its use more expensive.
The object of the present invention is to provide aqueous solutions of sodium salts of trimercapto-s-triazine which have a higher concentration of active substance than current commercially available solutions. Increasing the concentration makes possible a reduction in transportation and storage costs. The solutions should be stable in storage, that is, no crystallization of the active substance or of its salt should occur during storage. […]

Data set [3] in a line: Titration curve of TMT-H3. The class given is physicochemical. An excerpt:
In the sequence named, the jump are to be associated with the salts TMT-Na, TMT-Na2 and TMT-Na3.

A short description of data set [4]: Solubility / saturation concentration of TMT-Na salts and salt mixtures in water. It counts as physicochemical.
For data set [5] the following is noted: disclosure of DE-AS 22 40 549; cited from earlier work.

Regarding `Sc1nc(S)nc(S)n1.[Na].[Na].[Na]` [TMT-Na3, trimercapto-s-triazine trisodium salt], in data set [1] (0° C.), the “solubility of TMT-Na3” value was “approximately 0.78 mole TMT-Na3 per liter of H2 0”, the “Solubility of the TMT-Na salt/-salt mixture” value is 0.78 mole TMT salt/1 H2 O and the solubility is roughly 160 mg/mL. In data set [1] (20° C.), the “solubility of TMT-Na3” value is “approximately 1.37 mole TMT-Na3 per liter of H2 0”, the “Solubility of the TMT-Na salt/-salt mixture” value came out at 1.37 mole TMT salt/1 H2 O and the solubility is roughly 250 mg/mL. Moreover, the “solubility in water (in words)” value in data set [1] (in words) is given as “good solubility”. For the same compound, in data set [2], the “stability in storage (crystallization)” value is recorded as “crystallizes if the concentration is higher”.

As to `Sc1nc(S)nc(S)n1` [TMT-H3, Trimercapto-s-triazine], the “solubility in water (in words)” value in data set [1] (in words) is on record as “practically insoluble in water”. Moreover, the solubility in water entry in data set [1] is “less than 0.5 % by weight”. In addition, the “first jump of the titration curve” value in data set [3] (associated with TMT-Na) was “around 7 pH”. Further, the “second jump of the titration curve” value in data set [3] (associated with TMT-Na2) is given as “around 10.5 pH”. The “third jump of the titration curve” value in data set [3] (associated with TMT-Na3) is “around 12.5 pH”.

As to `Sc1nc(S)nc(S)n1` [TMT-Na2.6 H2 0, hexahydrate of trimercapto-s-triazine disodium salt], the “solubility in water (in words)” value in data set [4] (in words, disodium salt) is listed as “extraordinarily high solubility in water”.

Turning to `Sc1nc(S)nc(S)n1` [TMT-Na, monosodium salt of trimercapto-s-triazine], in data set [1] (in words), the “solubility in water (in words)” value is on record as “slightly soluble in water”. Further, the solubility in water entry in data set [1] and in data set [5] was “approximately 3 % by weight” in each case. For the same compound, the precipitation from solution result in data set [4] (less than 2 hydrogen atoms of trimercapto-s-triazine replaced by Na ions) is on record as “precipitates”.

Consider `Sc1nc(S)nc(S)n1` [TMT-Na2, disodium salt of trimercapto-s-triazine], for which the “solubility in water (in words)” value in data set [1] (in words) is given as “unusually high water solubility”. The “solubility relative to that of TMT-Na3” value in data set [1] (in words, comparison with TMT-Na3) is given as “considerably above that of the readily soluble TMT-Na3”.

Values taken from patent US5258515A, “Aqueous solutions of sodium salts of trimercapto-s-triazine, their preparation and use” (Degussa Aktiengesellschaft, priority 1989, dated 1993).
